Experimental data as given in BindingDB's records for doi:10.1016/j.chembiol.2006.12.006 (Research Institute, Hospital For Sick Children, 2007).

molecular target: T1, Beta-hexosaminidase subunit alpha (Homo sapiens, UniProt P06865); experiment: Enzyme Inhibition Assay; details: 25 °C
T1 sequence (P06865 whole entry): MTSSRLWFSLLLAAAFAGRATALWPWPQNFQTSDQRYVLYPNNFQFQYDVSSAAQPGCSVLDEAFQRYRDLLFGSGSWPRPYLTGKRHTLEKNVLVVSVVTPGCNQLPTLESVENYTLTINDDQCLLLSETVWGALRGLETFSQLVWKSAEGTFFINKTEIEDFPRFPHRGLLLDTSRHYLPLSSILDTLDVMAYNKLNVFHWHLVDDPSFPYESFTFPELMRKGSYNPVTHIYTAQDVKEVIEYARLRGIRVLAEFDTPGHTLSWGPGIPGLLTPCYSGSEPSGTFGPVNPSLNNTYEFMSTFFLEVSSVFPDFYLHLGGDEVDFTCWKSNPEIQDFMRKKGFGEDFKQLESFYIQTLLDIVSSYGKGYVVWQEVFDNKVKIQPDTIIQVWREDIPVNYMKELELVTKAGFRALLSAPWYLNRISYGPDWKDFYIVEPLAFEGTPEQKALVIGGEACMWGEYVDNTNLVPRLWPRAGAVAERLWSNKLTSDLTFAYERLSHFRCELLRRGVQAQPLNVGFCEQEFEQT
Source text: Enzyme assay based on 4-MU substrates with HTS to identify inhibitory compounds for Hex.

Row | Structure (SMILES) | IC50 [µM]
1 | O=C1c2cccc3cccc(c23)C(=O)N1CCCc1ccccn1 [M-31862] | 108
2 | O=C1c2cccc3cccc(c23)C(=O)N1CCCO [5141402] | 16
3 | CC(O)CCN1C(=O)c2cccc3cccc(c23)C1=O (stereo not given) [M-31867] | 31
4 | O=C1c2cccc3cccc(c23)C(=O)N1CC1CCCO1 (stereo not given) [M-31860] | 138
5 | O=C1NC(=O)c2cccc3cccc1c23 [BTB12933] | 18
